In ChEMBL document CHEMBL6078713, “Synthesis and mechanistic studies of 4-aminoquinoline-Isatin molecular hybrids and Schiff's bases as promising antimicrobial agents” (Eur J Med Chem, 2025):
≈ marks a conversion by molar mass, not a printed value. Calls of active or inactive are those of the source. The calls are words filed in the database; no cut-off is given here.

What was measured:
Pseudomonas aeruginosa [1] = assay: Bactericidal activity against Pseudomonas aeruginosa MTCC 2453 assessed as inhibition of bacterial growth incubated overnight; assay type: functional
Pseudomonas aeruginosa [2] = assay: Ratio of MBC for antibacterial activity against Pseudomonas aeruginosa MTCC 2453 to MIC for bactericidal activity against Pseudomonas aeruginosa MTCC 2453; assay type: functional
Staphylococcus aureus [3] = assay: Synergistic antibacterial activity against Staphylococcus aureus MTCC 902 assessed as fractional inhibitory concentration index incubated overnight in presence of ciprofloxacin by microdilution checkerboard assay; assay type: functional
Staphylococcus aureus [4] = assay: Bacteriostatic activity against Staphylococcus aureus MTCC 902 assessed as reduction in bacterial growth at 2 times MIC measured upto 24 hrs by absorbance based assay; assay type: functional, organism-based
Enterococcus faecalis [5] = assay: Bactericidal activity against Enterococcus faecalis MTCC 439 assessed as inhibition of bacterial growth incubated overnight; assay type: functional
Bacillus subtilis [6] = assay: Antibacterial activity against Bacillus subtilis MTCC 736 assessed as diameter of zone of inhibition at 2 times MIC incubated overnight by disk diffusion method; assay type: functional
Pseudomonas aeruginosa [7] = assay: Synergistic antibacterial activity against Pseudomonas aeruginosa MTCC 2453 assessed as fractional inhibitory concentration index incubated overnight in presence of ciprofloxacin by microdilution checkerboard assay; assay type: functional
Enterococcus faecalis [8] = assay: Antibacterial activity against Enterococcus faecalis MTCC 439 assessed as inhibition of bacterial growth incubated overnight by serial dilution based spectrophotometer; assay type: functional
Bacillus subtilis [9] = assay: Synergistic antibacterial activity against Bacillus subtilis MTCC 736 assessed as inhibition of bacterial growth incubated overnight in presence of ciprofloxacin by serial dilution based spectrophotometer; assay type: functional
Escherichia coli [10] = assay: Antibacterial activity against Escherichia coli MTCC 443 assessed as diameter of zone of inhibition at 500 ug/ml by agar disk diffusion method; assay type: functional; conditions: read-out: DIZ
Escherichia coli [11] = assay: Bacteriostatic activity against Escherichia coli MTCC 443 assessed as reduction in bacterial growth at 2 times MIC measured upto 24 hrs by absorbance based assay; assay type: functional, organism-based
Salmonella typhi [12] = assay: Antibacterial activity against Salmonella typhi assessed as diameter of zone of inhibition at MIC incubated overnight by disk diffusion method; assay type: functional, Salmonella enterica subsp. enterica serovar Typhi
Staphylococcus aureus [13] = assay: Bactericidal activity against Staphylococcus aureus MTCC 902 assessed as inhibition of bacterial growth incubated overnight; assay type: functional
Enterococcus faecalis [14] = assay: Antibacterial activity against Enterococcus faecalis MTCC 439 assessed as diameter of zone of inhibition at 2 times MIC incubated overnight by disk diffusion method; assay type: functional
Staphylococcus aureus [15] = assay: Antibacterial activity against Staphylococcus aureus MTCC 902 assessed as inhibition of bacterial growth incubated overnight by serial dilution based spectrophotometer; assay type: functional
Escherichia coli [16] = assay: Antibacterial activity against Escherichia coli MTCC 443 assessed as inhibition of bacterial growth incubated overnight by serial dilution based spectrophotometer; assay type: functional
Bacillus subtilis [17] = assay: Antibacterial activity against Bacillus subtilis MTCC 736 assessed as diameter of zone of inhibition at 0.5 times MIC incubated overnight by disk diffusion method; assay type: functional
Salmonella typhi [18] = assay: Antibacterial activity against Salmonella typhi assessed as diameter of zone of inhibition at 2 times MIC incubated overnight by disk diffusion method; assay type: functional, Salmonella enterica subsp. enterica serovar Typhi
Salmonella typhi [19] = assay: Synergistic antibacterial activity against Salmonella typhi assessed as fractional inhibitory concentration index incubated overnight in presence of ciprofloxacin by microdilution checkerboard assay; assay type: functional, Salmonella enterica subsp. enterica serovar Typhi
Bacillus subtilis [20] = assay: Antibacterial activity against Bacillus subtilis MTCC 736 assessed as inhibition of bacterial growth at 200 ug/ml incubated overnight by spectrophotometry relative to control; assay type: functional
Salmonella typhi [21] = assay: Antibacterial activity against Salmonella typhi assessed as diameter of zone of inhibition at 0.5 times MIC incubated overnight by disk diffusion method; assay type: functional, Salmonella enterica subsp. enterica serovar Typhi
Bacillus subtilis [22] = assay: Ratio of MBC for antibacterial activity against Bacillus subtilis MTCC 736 to MIC for bactericidal activity against Bacillus subtilis MTCC 736; assay type: functional
Enterococcus faecalis [23] = assay: Synergistic antibacterial activity against Enterococcus faecalis MTCC 439 assessed as fractional inhibitory concentration index incubated overnight in presence of ciprofloxacin by microdilution checkerboard assay; assay type: functional
Enterococcus faecalis [24] = assay: Synergistic antibacterial activity against Enterococcus faecalis MTCC 439 assessed as inhibition of bacterial growth incubated overnight in presence of ciprofloxacin by serial dilution based spectrophotometer; assay type: functional
Pseudomonas aeruginosa [25] = assay: Synergistic antibacterial activity against Pseudomonas aeruginosa MTCC 2453 assessed as inhibition of bacterial growth incubated overnight in presence of ciprofloxacin by serial dilution based spectrophotometer; assay type: functional
Salmonella typhi [26] = assay: Ratio of MBC for antibacterial activity against Salmonella typhi to MIC for bactericidal activity against Salmonella typhi; assay type: functional, Salmonella enterica subsp. enterica serovar Typhi
Staphylococcus aureus [27] = assay: Synergistic antibacterial activity against Staphylococcus aureus MTCC 902 assessed as inhibition of bacterial growth incubated overnight in presence of ciprofloxacin by serial dilution based spectrophotometer; assay type: functional
Escherichia coli [28] = assay: Bactericidal activity against Escherichia coli MTCC 443 assessed as inhibition of bacterial growth incubated overnight; assay type: functional
Bacillus subtilis [29] = assay: Antibacterial activity against Bacillus subtilis MTCC 736 assessed as inhibition of bacterial growth incubated overnight by serial dilution based spectrophotometer; assay type: functional
Staphylococcus aureus [30] = assay: Antibacterial activity against Staphylococcus aureus MTCC 902 assessed as diameter of zone of inhibition at 500 ug/ml by agar disk diffusion method; assay type: functional; conditions: read-out: DIZ
Pseudomonas aeruginosa [31] = assay: Antibacterial activity against Pseudomonas aeruginosa MTCC 2453 assessed as diameter of zone of inhibition at 500 ug/ml by agar disk diffusion method; assay type: functional; conditions: read-out: DIZ
Escherichia coli [32] = assay: Antibacterial activity against Escherichia coli MTCC 443 assessed as diameter of zone of inhibition at MIC incubated overnight by disk diffusion method; assay type: functional
Escherichia coli [33] = assay: Synergistic antibacterial activity against Escherichia coli MTCC 443 assessed as fractional inhibitory concentration index incubated overnight in presence of ciprofloxacin by microdilution checkerboard assay; assay type: functional
Pseudomonas aeruginosa [34] = assay: Antibacterial activity against Pseudomonas aeruginosa MTCC 2453 assessed as inhibition of bacterial growth incubated overnight by serial dilution based spectrophotometer; assay type: functional
Enterococcus faecalis [35] = assay: Antibacterial activity against Enterococcus faecalis MTCC 439 assessed as diameter of zone of inhibition at MIC incubated overnight by disk diffusion method; assay type: functional
Pseudomonas aeruginosa [36] = assay: Antibacterial activity against Pseudomonas aeruginosa MTCC 2453 assessed as diameter of zone of inhibition at MIC incubated overnight by disk diffusion method; assay type: functional
Staphylococcus aureus [37] = assay: Antibacterial activity against Staphylococcus aureus MTCC 902 assessed as diameter of zone of inhibition at 2 times MIC incubated overnight by disk diffusion method; assay type: functional
Staphylococcus aureus [38] = assay: Antibacterial activity against Staphylococcus aureus MTCC 902 assessed as diameter of zone of inhibition at MIC incubated overnight by disk diffusion method; assay type: functional
Escherichia coli [39] = assay: Ratio of MBC for antibacterial activity against Escherichia coli MTCC 443 to MIC for bactericidal activity against Escherichia coli MTCC 443; assay type: functional
Salmonella typhi [40] = assay: Antibacterial activity against Salmonella typhi assessed as diameter of zone of inhibition at 500 ug/ml by agar disk diffusion method; assay type: functional, Salmonella enterica subsp. enterica serovar Typhi; conditions: Salmonella enterica, read-out: DIZ
Bacillus subtilis [41] = assay: Antibacterial activity against Bacillus subtilis MTCC 736 assessed as diameter of zone of inhibition at MIC incubated overnight by disk diffusion method; assay type: functional
Enterococcus faecalis [42] = assay: Antibacterial activity against Enterococcus faecalis MTCC 439 assessed as inhibition of bacterial growth at 200 ug/ml incubated overnight by spectrophotometry relative to control; assay type: functional
Escherichia coli [43] = assay: Synergistic antibacterial activity against Escherichia coli MTCC 443 assessed as inhibition of bacterial growth incubated overnight in presence of ciprofloxacin by serial dilution based spectrophotometer; assay type: functional
Salmonella typhi [44] = assay: Synergistic antibacterial activity against Salmonella typhi assessed as inhibition of bacterial growth incubated overnight in presence of ciprofloxacin by serial dilution based spectrophotometer; assay type: functional, Salmonella enterica subsp. enterica serovar Typhi; conditions: Salmonella enterica
Bacillus subtilis [45] = assay: Bactericidal activity against Bacillus subtilis MTCC 736 assessed as inhibition of bacterial growth incubated overnight; assay type: functional
Bacillus subtilis [46] = assay: Synergistic antibacterial activity against Bacillus subtilis MTCC 736 assessed as fractional inhibitory concentration index incubated overnight in presence of ciprofloxacin by microdilution checkerboard assay; assay type: functional
Bacillus subtilis [47] = assay: Antibacterial activity against Bacillus subtilis MTCC 736 assessed as diameter of zone of inhibition at 500 ug/ml by agar disk diffusion method; assay type: functional; conditions: read-out: DIZ
Enterococcus faecalis [48] = assay: Antibacterial activity against Enterococcus faecalis MTCC 439 assessed as diameter of zone of inhibition at 0.5 times MIC incubated overnight by disk diffusion method; assay type: functional
Enterococcus faecalis [49] = assay: Antibacterial activity against Enterococcus faecalis MTCC 439 assessed as diameter of zone of inhibition at 500 ug/ml by agar disk diffusion method; assay type: functional; conditions: read-out: DIZ
Pseudomonas aeruginosa [50] = assay: Antibacterial activity against Pseudomonas aeruginosa MTCC 2453 assessed as diameter of zone of inhibition at 2 times MIC incubated overnight by disk diffusion method; assay type: functional
Pseudomonas aeruginosa [51] = assay: Antibacterial activity against Pseudomonas aeruginosa MTCC 2453 assessed as inhibition of bacterial growth at 200 ug/ml incubated overnight by spectrophotometry relative to control; assay type: functional
Salmonella typhi [52] = assay: Antibacterial activity against Salmonella typhi assessed as inhibition of bacterial growth incubated overnight by serial dilution based spectrophotometer; assay type: functional, Salmonella enterica subsp. enterica serovar Typhi; conditions: Salmonella enterica
Escherichia coli [53] = assay: Antibacterial activity against Escherichia coli MTCC 443 assessed as diameter of zone of inhibition at 2 times MIC incubated overnight by disk diffusion method; assay type: functional
Salmonella typhi [54] = assay: Bactericidal activity against Salmonella typhi assessed as inhibition of bacterial growth incubated overnight; assay type: functional, Salmonella enterica subsp. enterica serovar Typhi; conditions: Salmonella enterica

Fc1ccc(/C=N/CCNc2ccnc3cc(Cl)ccc23)cc1
MBC (Pseudomonas aeruginosa [1]): 512 µg/mL (≈ 1560 µM) | Ratio (Pseudomonas aeruginosa [2]): 1 | fractional inhibitory concentration index (FICI) (Staphylococcus aureus [3]): 1.12 | Activity (Staphylococcus aureus [4]): Active | MBC (Enterococcus faecalis [5]): > 512 µg/mL | diameter of the inhibition zone (DIZ) (Bacillus subtilis [6]): 13 mm | fractional inhibitory concentration index (FICI) (Pseudomonas aeruginosa [7]): 1.5 | MIC (Enterococcus faecalis [8]): 256 µg/mL (≈ 781 µM) | MIC (Bacillus subtilis [9]): 256 µg/mL | zone of inhibition at 500 µg/mL (Escherichia coli [10]): 8 mm | Activity (Escherichia coli [11]): Active | diameter of the inhibition zone (DIZ) (Salmonella typhi [12]): 10 mm | MBC (Staphylococcus aureus [13]): > 512 µg/mL | diameter of the inhibition zone (DIZ) (Enterococcus faecalis [14]): 7 mm | MIC (Staphylococcus aureus [15]): 256 µg/mL (≈ 781 µM) | MIC (Escherichia coli [16]): 512 µg/mL (≈ 1560 µM) | diameter of the inhibition zone (DIZ) (Bacillus subtilis [17]): 9 mm | diameter of the inhibition zone (DIZ) (Salmonella typhi [18]): 11 mm | fractional inhibitory concentration index (FICI) (Salmonella typhi [19]): 0.187 | inhibition at 200 µg/mL (Bacillus subtilis [20]): 100% | diameter of the inhibition zone (DIZ) (Salmonella typhi [21]): 10 mm | Ratio (Bacillus subtilis [22]): 1 | fractional inhibitory concentration index (FICI) (Enterococcus faecalis [23]): 1.5 | MIC (Enterococcus faecalis [24]): 128 µg/mL | MIC (Pseudomonas aeruginosa [25]): 256 µg/mL | Ratio (Salmonella typhi [26]): 1 | MIC (Staphylococcus aureus [27]): 32 µg/mL | MBC (Escherichia coli [28]): 512 µg/mL (≈ 1560 µM) | MIC (Bacillus subtilis [29]): 256 µg/mL (≈ 781 µM) | zone of inhibition at 500 µg/mL (Staphylococcus aureus [30]): 9 mm | zone of inhibition at 500 µg/mL (Pseudomonas aeruginosa [31]): 7 mm | diameter of the inhibition zone (DIZ) (Escherichia coli [32]): 10 mm | fractional inhibitory concentration index (FICI) (Escherichia coli [33]): 0.37 | MIC (Pseudomonas aeruginosa [34]): 512 µg/mL (≈ 1560 µM) | diameter of the inhibition zone (DIZ) (Enterococcus faecalis [35]): 7 mm | diameter of the inhibition zone (DIZ) (Pseudomonas aeruginosa [36]): 8 mm | diameter of the inhibition zone (DIZ) (Staphylococcus aureus [37]): 10 mm | diameter of the inhibition zone (DIZ) (Staphylococcus aureus [38]): 8 mm | Ratio (Escherichia coli [39]): 1 | zone of inhibition at 500 µg/mL (Salmonella typhi [40]): 11 mm | diameter of the inhibition zone (DIZ) (Bacillus subtilis [41]): 9 mm | inhibition at 200 µg/mL (Enterococcus faecalis [42]): 100% | MIC (Escherichia coli [43]): 64 µg/mL | MIC (Salmonella typhi [44]): 16 µg/mL | MBC (Bacillus subtilis [45]): 256 µg/mL (≈ 781 µM) | fractional inhibitory concentration index (FICI) (Bacillus subtilis [46]): 2 | zone of inhibition at 500 µg/mL (Bacillus subtilis [47]): 10 mm | diameter of the inhibition zone (DIZ) (Enterococcus faecalis [48]): 7 mm | zone of inhibition at 500 µg/mL (Enterococcus faecalis [49]): 10 mm | diameter of the inhibition zone (DIZ) (Pseudomonas aeruginosa [50]): 9 mm | inhibition at 200 µg/mL (Pseudomonas aeruginosa [51]): 100% | MIC (Salmonella typhi [52]): 128 µg/mL (≈ 390 µM) | diameter of the inhibition zone (DIZ) (Escherichia coli [53]): 13 mm | MBC (Salmonella typhi [54]): 128 µg/mL (≈ 390 µM)
